Data published in patent US20230021880A1, “Cladribine regimen for treating progressive forms of Multiple Sclerosis” (Merck Patent GmbH, priority 2017, published 2023).
Read-outs that look alike come from different tables or passages of the source. Values belong to the molecule of their own block, whether it stands above or below them.

Tests used:
Plasma protein binding = format: in vitro ADME; conditions: independent of plasma concentration
human hepatocytes = experiment: In vitro transporter-mediated uptake; format: in vitro ADME
[1] = Metabolism in hepatic in vitro systems; format: in vitro ADME
Text: In hepatic in vitro systems, negligible metabolism of Cladribine was observed (at least 90% was unchanged Cladribine)

mice [2] = experiment: Repeat-dose toxicology studies by parenteral routes; format: in vivo
monkeys = experiment: Repeat-dose toxicology studies by parenteral routes up to 1-year duration; format: in vivo
bacteria = experiment: Gene mutation test; format: cell-based
Protocol: (§1) Cladribine is incorporated into DNA strands and inhibits DNA synthesis and repair. […] In vivo clastogenicity in mice was detected at 10 mg/kg, which was the lowest dose tested.

mammalian cells = experiment: Gene mutation test; format: cell-based
mice [3] = experiment: In vivo clastogenicity (mouse micronucleus study)
Protocol: as §1

Tg rasH2 mice = experiment: Short-term 26-week carcinogenicity study, oral; format: in vivo
monkey = experiment: 1-year monkey study by the subcutaneous route (tumors); format: in vivo
[4] = test system: patients with relapsing forms of clinically definite multiple sclerosis; experiment: Example 3: oral Cladribine induction/maintenance regimen in relapsing forms of MS; format: in vivo, human; conditions: induction treatment and maintenance treatments
Text: The efficacy and safety of oral Cladribine administration, eventually multi-dose administration, as described herein, can alternatively also be assessed for example following the protocol for the treatment of relapsing forms of […] as given below.
A study of sixty patients with relapsing forms of clinically definite multiple sclerosis is undertaken. Each patient is first examined for normal hepatic, renal, and bone marrow functioning to establish baseline values
Patients are selected from Male or Female, between 18 and 55 years of age who had one or more relapses within the prior 12 months Female patients are non-pregnant female
Each of the patients in Groups 2 and 3 receives 3 mg or 10 mg 2-CdA (1, 2 or 3 administration(s) a day depending on the patient's weight) combined in cyclodextrin formulation a described in WO 2004/087101, Example 3. The Compositions of the Cladaribine formulations in 3 mg or 10 mg 2-CdA tablets containing […] are listed in Table 2, below. […]
Patients are monitored to determine whether there is any progression or improvement of brain lesions associated with progression of MS through MRI scans and neurological examination as described in Miller et at, 1996, above; Evans et al, 1997, above; Sipe et at, 1984, above; and Mattson, 2002, above. […]

[5] = test system: patients with relapsing-remitting MS; conditions: cited from earlier work; for annualized rate of relapse / relapse-free rate: 96 weeks
CYP2C8 = CYP2C8 (Homo sapiens, UniProt P10632)
Chain of CYP2C8 (P10632 whole entry): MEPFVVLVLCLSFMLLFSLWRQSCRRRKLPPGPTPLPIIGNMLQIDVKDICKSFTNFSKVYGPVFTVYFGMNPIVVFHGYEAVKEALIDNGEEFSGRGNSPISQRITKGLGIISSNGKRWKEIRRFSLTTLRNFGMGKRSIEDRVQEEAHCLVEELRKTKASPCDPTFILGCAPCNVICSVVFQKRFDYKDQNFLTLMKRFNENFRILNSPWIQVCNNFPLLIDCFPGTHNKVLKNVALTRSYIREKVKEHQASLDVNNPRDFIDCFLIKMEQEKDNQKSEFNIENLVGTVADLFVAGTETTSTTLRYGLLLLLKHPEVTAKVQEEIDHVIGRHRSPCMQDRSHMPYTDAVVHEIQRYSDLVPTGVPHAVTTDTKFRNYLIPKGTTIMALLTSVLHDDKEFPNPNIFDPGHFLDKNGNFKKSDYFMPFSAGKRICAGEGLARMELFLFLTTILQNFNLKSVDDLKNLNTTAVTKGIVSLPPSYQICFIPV

CYP2C19 = CYP2C19 (Homo sapiens, UniProt P33261)
Chain of CYP2C19 (P33261 whole entry): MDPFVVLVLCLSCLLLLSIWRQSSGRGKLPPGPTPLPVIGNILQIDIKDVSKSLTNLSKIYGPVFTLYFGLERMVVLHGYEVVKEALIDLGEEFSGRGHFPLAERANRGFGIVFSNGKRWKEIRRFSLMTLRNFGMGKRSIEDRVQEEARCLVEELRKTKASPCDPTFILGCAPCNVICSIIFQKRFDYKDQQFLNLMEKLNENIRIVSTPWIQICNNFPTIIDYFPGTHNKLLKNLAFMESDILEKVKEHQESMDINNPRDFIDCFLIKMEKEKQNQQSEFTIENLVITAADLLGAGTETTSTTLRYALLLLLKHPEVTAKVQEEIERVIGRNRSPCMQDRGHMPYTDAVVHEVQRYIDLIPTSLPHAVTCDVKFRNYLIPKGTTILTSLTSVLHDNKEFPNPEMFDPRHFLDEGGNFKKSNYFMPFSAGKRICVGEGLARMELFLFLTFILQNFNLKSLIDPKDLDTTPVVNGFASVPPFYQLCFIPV

CYP2D6 = CYP2D6 (Homo sapiens, UniProt P10635)
Chain of CYP2D6 (P10635 whole entry): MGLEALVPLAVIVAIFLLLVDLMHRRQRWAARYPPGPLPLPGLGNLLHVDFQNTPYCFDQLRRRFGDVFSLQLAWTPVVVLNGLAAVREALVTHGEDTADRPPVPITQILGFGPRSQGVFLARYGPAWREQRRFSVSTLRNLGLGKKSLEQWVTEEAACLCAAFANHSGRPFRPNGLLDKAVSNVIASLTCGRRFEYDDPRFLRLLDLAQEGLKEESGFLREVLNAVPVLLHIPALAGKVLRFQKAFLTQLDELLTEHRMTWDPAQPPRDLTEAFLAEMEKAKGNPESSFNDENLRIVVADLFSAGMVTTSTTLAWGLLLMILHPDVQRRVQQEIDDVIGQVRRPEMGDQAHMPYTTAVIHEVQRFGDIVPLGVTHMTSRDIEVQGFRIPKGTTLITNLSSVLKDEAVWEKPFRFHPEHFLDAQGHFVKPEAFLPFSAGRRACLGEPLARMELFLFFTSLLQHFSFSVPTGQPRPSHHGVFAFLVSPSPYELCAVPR

[6] = in vivo; cited from earlier work
[7] = test system: patients with relapsing-remitting MS; experiment: CLARITY study: oral Cladribine vs placebo over 96 weeks
[8] = Population pharmacokinetic analysis (pooled data from various studies)
[9] = Cladribine pharmacokinetics following oral administration; conditions: MS patients; after oral administration of single 10-mg tablet
[10] = Intracellular pharmacokinetics of Cd-AMP and Cd-ATP in patients with chronic myelogenous leukemia; conditions: human, in vivo
Protocol: After entering the target cells, Cladribine is phosphorylated to Cladribine monophosphate (Cd-AMP) by DCK (and also by deoxyguanosine kinase in the mitochondria). Cd-AMP is further phosphorylated to Cladribine diphosphate (Cd-ADP) and Cladribine triphosphate (Cd-ATP). The dephosphorylation and deactivation of Cd-AMP is catalyzed by cytoplasmic […].
Intracellular half-life of Cd-ATP was 10 h.

PPMS patients [11] = conditions: cited from earlier work
PPMS patients [12] = conditions: cited from earlier work; remark: listed apart in the source
PPMS patients [13] = conditions: ORATORIO, cited from earlier work
[14] = post-hoc, high disease activity

Molecule: Nc1nc(Cl)nc2c1ncn2[C@H]1C[C@H](O)[C@@H](CO)O1 [Cladribine, 2-chloro-2′deoxyadenosine]
- fraction unbound (Plasma protein binding): 0.8
- transporter-mediated uptake into human hepatocytes (human hepatocytes): negligible
- unchanged Cladribine [1]: at least 90%
- effects on the kidneys (mice [2]): Effects on the kidneys were also seen
- primary target organs (mice [2]; intravenous or subcutaneous, up to 1-year duration): lymphoid and hematopoietic system
- primary target organs (monkeys; intravenous or subcutaneous, up to 1-year duration, monkeys): lymphoid and hematopoietic system
- testicular effects (monkeys; monkey): Testicular degeneration and reversible decrease in spermatozoa with rapid progressive motility
- other target organs after longer administration (14 cycles) (monkeys; subcutaneous route, monkeys): kidneys (karyomegaly of renal tubular epithelium), adrenals (cortex atrophy and decreased vacuolation), gastrointestinal tract (mucosa atrophy) and testes
- gene mutation (bacteria): did not induce gene mutation
- gene mutation (mammalian cells): did not induce gene mutation
- dose at which in vivo clastogenicity was detected (lowest dose tested) (mice [3]): 10 mg/kg
- exposure multiple vs expected human AUC at maximum daily dose of 20 mg (Tg rasH2 mice; 30 mg/kg per day): approximately 25 fold
- tumor incidence (Tg rasH2 mice; 26-week, oral, up to 30 mg/kg per day, Tg rasH2 mice): no Cladribine-related increase in incidence of lymphoproliferative disorders or other tumor types
- tumor incidence (monkey): No increased incidence in lymphoproliferative disorders and no tumors were seen
- adverse effect [4]: no severe adverse effect is observed
- brain lesions ([4]; oral cyclodextrin formulation): efficient in decreasing brain lesions
- annualized rate of relapse ([5]; 3.5 mg per kilogram cumulative dose): 0.14
- relapse-free rate ([5]; 3.5 mg per kilogram): 79.7%
- annualized rate of relapse ([5]; 5.25 mg per kilogram cumulative dose): 0.15
- relapse-free rate ([5]; 5.25 mg per kilogram): 78.9%
- hazard ratio, 3-month sustained progression of disability ([5]; 3.5-mg group vs placebo): 0.67
- herpes zoster ([5]; 3.5-mg group): 8 patients
- lymphocytopenia (adverse event frequency) ([5]; 3.5-mg group): 21.6%
- hazard ratio, 3-month sustained progression of disability ([5]; 5.25-mg group vs placebo): 0.69
- herpes zoster ([5]; 5.25-mg group): 12 patients
- lymphocytopenia (adverse event frequency) ([5]; 5.25-mg group): 31.5%
- potential to act as inhibitor of CYP2C8 (CYP2C8): does not show significant potential to act as inhibitor
- potential to act as inhibitor of CYP2C19 (CYP2C19): does not show significant potential to act as inhibitor
- potential to act as inhibitor of CYP2D6 (CYP2D6): does not show significant potential to act as inhibitor
- inductive effect on CYP2B6 (CYP2B6): no clinically meaningful inductive effect
- inductive effect on CYP3A4 (CYP3A4): no clinically meaningful inductive effect
- potential to penetrate the blood brain barrier [6]: 25%
- adjusted mean number of active T2 lesions ([7]; 3.5 mg/kg): 0.38
- adjusted mean number of combined unique lesions per patient per scan ([7]; 3.5 mg/kg): 0.43
- incidence of ≥grade 3 lymphopenia ([7]; 3.5 mg/kg group): 25.6%
- relative reduction in the mean number of active T2 lesions ([7]; 3.5 mg/kg vs placebo): 73%
- relative reduction in the mean number of combined unique lesions per patient per scan ([7]; 3.5 mg/kg vs placebo): 74%
- relative reduction in the mean number of T1 Gd+ lesions ([7]; 3.5 mg/kg vs placebo, brain MRI over 96 weeks): 86%
- adjusted mean number of T1 Gd+ lesions ([7]; 3.5 mg/kg, brain MRI over 96 weeks): 0.12
- incidence of ≥grade 3 lymphopenia ([7]; 5.25 mg/kg group): 44.9%
- Proportion of patients relapse-free over 96 weeks ([7]; cumulative dose 3.5 mg/kg): 79.7%
- Relative reduction (cladribine vs. placebo) of annualised relapse rate ([7]; cumulative dose 3.5 mg/kg): 57.6%
- Time to 3-month FDSS progression, 10th percentile (months) ([7]; cumulative dose 3.5 mg/kg): 13.6 months
- Proportion of patients relapse-free over 96 weeks ([7]; cumulative dose 5.25 mg/kg): 78.9%
- Relative reduction (cladribine vs. placebo) of annualised relapse rate ([7]; cumulative dose 5.25 mg/kg): 54.5%
- Time to 3-month FDSS progression, 10th percentile (months) ([7]; cumulative dose 5.25 mg/kg): 13.6 months
- 10th percentile of time to 6-month confirmed EDSS progression ([7]; post-hoc, 3.5 mg/kg group): not reached at all during the study period
- hazard ratio, time to 6-month confirmed EDSS progression ([7]; post-hoc, 3.5 mg/kg vs placebo): 0.53
- reduction of the risk of disability progression (time to 6-month confirmed EDSS progression) ([7]; post-hoc, 3.5 mg/kg vs placebo): 47%
- 10th percentile for disability progression [7, 14]: not reached during the entire study
- hazard ratio, time to 6-month sustained disability [7, 14]: 0.18
- reduction of risk of disability progression (time to 6-month sustained disability) [7, 14]: 82%
- increase in exposure in patients with mild renal impairment ([8]; in vivo): 25%
- non-renal part of the elimination ([8]; in vivo): approximately 50%
- non-renal clearance (median) ([8]; pooled population pharmacokinetic data): 23.4 L/h

- metabolite share of plasma parent drug exposure [9]: < 3%
Molecule: Nc1nc(Cl)nc2nc[nH]c12 [2-chloroadenine]

- half-life [10]: 10 h
- intracellular levels relative to Cd-AMP [10]: approximately half of the Cd-AMP levels
Molecule: Nc1nc(Cl)nc2c1ncn2[C@H]1C[C@H](O)[C@@H](COP(=O)(O)OP(=O)(O)OP(=O)(O)O)O1 [Cd-ATP, 2-chlorodeoxyadenosine triphosphate]

Molecule: glatiramer acetate
- study outcome (PPMS patients [11]; PROMISE Study in PPMS): did not reach meaningful clinical endpoints
- EDSS progression overall HR (95% CI) (PPMS patients [11]; PROMISE, CDP (3)): 0.87
- % with CDP study drug, CDP (3) Month 12 (PPMS patients [11]; PROMISE, PPMS): 22%
- % with CDP study drug, CDP (3) Month 24 (PPMS patients [11]; PROMISE, PPMS): 41%

Molecule: rituximab: study drug of the OLYMPUS study in PPMS
- study outcome (PPMS patients [12]; OLYMPUS study in PPMS): did not reach meaningful clinical endpoints
- EDSS progression overall HR (95% CI) (PPMS patients [12]; OLYMPUS, CDP (3)): 0.77
- % with CDP study drug, CDP (3) Week 48 (PPMS patients [12]; OLYMPUS, PPMS): 20.2%
- % with CDP study drug, CDP (3) Week 96 (PPMS patients [12]; OLYMPUS, PPMS): 30.2%
- % with CDP study drug, CDP (6) Week 96 (PPMS patients [12]; OLYMPUS, PPMS): 27.3%

Molecule: Cladribine monophosphate [Cd-AMP]
- Intracellular half-life [10]: 15 h

Molecule: ocrelizumab: humanized monoclonal antibody that targets the CD20 surface molecule on B-cells
- EDSS progression overall HR (95% CI) (PPMS patients [13]; CDP (3)): 0.76
- EDSS progression overall HR (95% CI) (PPMS patients [13]; CDP (6)): 0.75
- % with CDP study drug, CDP (3) Week 120 (PPMS patients [13]): 32.9%
- % with CDP study drug, CDP (6) Week 120 (PPMS patients [13]): 29.7%
- % with CDP study drug, CDP (3) Month 12 (PPMS patients [13]; derived from the KM): ~13.2%
- % with CDP study drug, CDP (6) Month 12 (PPMS patients [13]; derived from the KM): ~15.2%
